Experimental data taken from patent US20130053385A1, “METHOD OF COMBATING AND CONTROLLING PESTS” (SYNGENTA LIMITED, priority 2009, published 2013).
Where two headings read alike, the source gives them in different places.

Key:
Assay type in all cases: in vivo
[1] = tested on: Tetranychus urticae (Two-Spotted Spider Mite); assay: Activity against Tetranychus urticae, mixed population, feeding/residual contact activity, preventive (bean leaf discs, Example B4); settings: foliar, 192 h, read-out: activity (egg, larval and adult mortality)
From the text: Activity Against Tetranychus urticae (Two-Spotted Spider Mite)
(§1) (mixed population, feeding/residual contact activity, preventive)
Bean leaf discs on agar in 24-well microtiter plates are sprayed with test solutions. After drying, the leaf discs are infested with mite populations of mixed ages. 8 days later, discs are checked for egg mortality, larval mortality, and adult mortality.

[2] = tested on: Myzus persicae (Green Peach Aphid); assay: Activity against Myzus persicae, mixed population, feeding/residual contact activity, preventive (sunflower leaf discs, Example B1); settings: foliar, 144 h, read-out: activity (mortality)
Procedure: Activity Against Myzus persicae (Green Peach Aphid)
as §1
Sunflower leaf discs are placed on agar in a 24-well microtiter plate and sprayed with test solutions. After drying, the leaf discs are infested with an aphid population of mixed ages. After an incubation period of 6 days, samples are checked for mortality and special effects (e.g. phytotoxicity).

[3] = tested on: Thrips tabaci (Onion Thrips); assay: Activity against Thrips tabaci, mixed population, feeding/residual contact activity, preventive (sunflower leaf discs, Example B3); settings: foliar, 144 h, sprayed sunflower leaf discs, 6 days incubation, mixed-age thrips
Procedure: Activity Against Thrips tabaci (Onion Thrips)
as §1
Sunflower leaf discs are placed on agar in a 24-well microtiter plate and sprayed with test solutions. After drying, the leaf discs are infested with a thrips population of mixed ages. After an incubation period of 6 days, samples are checked for mortality and special effects (e.g. phytotoxicity).

[4] = 400 ppm, sprayed bean leaf discs, 8 days, mixed-age mites
[5] = 400 ppm, sprayed sunflower leaf discs, 6 days incubation, mixed-age aphids

SMILES	mortality at 400 ppm [1, 4] [%]	other results
Cc1cc(C)c(C2C(=O)CC(CC3OCCO3)C2=O)c(C)c1 (centres unmarked) [Compound T130]	> 80	
CCS(=O)(=O)N1CCC(CC2CC(=O)C(c3c(C)cc(C)cc3C)C2=O)CC1 (centres unmarked) [Compound T95]	> 80	mortality at 400 ppm [2, 5]: > 80%
Cc1cc(C)c(C2C(=O)CC(CC3CCN(C(=O)C(F)(F)F)C3)C2=O)c(C)c1 (centres unmarked) [Compound T162]	> 80	
CC(=O)N1CCC(/C=C2\CC(=O)C(c3c(C)cc(C)cc3C)C2=O)CC1 (centres unmarked) [Compound T15]		mortality at 400 ppm [2, 5]: > 80%
Cc1cc(C)c(C2C(=O)CC(CC3CCN(C(=O)c4ccccc4)C3)C2=O)c(C)c1 (centres unmarked) [Compound T41]	> 80	
Cc1cc(Cl)cc(C)c1C1C(=O)CC(CC2CCOCC2)C1=O (centres unmarked) [Compound T169]		mortality at 400 ppm [2, 5]: > 80%
CC(=O)N1CCC(CC2CC(=O)C(c3c(C)cc(C)cc3C)C2=O)CC1 (centres unmarked) [Compound T24]		mortality at 400 ppm [2, 5]: > 80%
Cc1cc(C)c(C2=C(OC(=O)C(C)(C)C)CC(CCC3CCOCC3)C2=O)c(C)c1 (centres unmarked) [Compound P34]	> 80	
CC(=O)N1CCC(CC2CC(=O)C(c3c(C)cc(C)cc3C)C2=O)C1 (centres unmarked) [Compound T35]	> 80	
Cc1cc(C)c(C2C(=O)CC(CC3C[C@@H]4O[C@H]3[C@@H]3C(=O)N(C)C(=O)[C@@H]34)C2=O)c(C)c1 (some centres unmarked) [Compound T128]	> 80	
COC(=O)N1CCC(CC2CC(=O)C(c3c(C)cc(C)cc3C)C2=O)C1 (centres unmarked) [Compound T43]	> 80	
Cc1cc(F)cc(C)c1C1C(=O)CC(CC2CCOC2)C1=O (centres unmarked) [Compound T171]	> 80	mortality at 400 ppm [2, 5]: > 80%
Cc1cc(-c2ccc(OC(F)(F)F)cc2)cc(C)c1C1C(=O)C/C(=C\C2CCOCC2)C1=O (centres unmarked) [Compound T134]	> 80	
Cc1cc(C)c(C2=C(OC(=O)C3CC3)CC(CC3CCN(C(=O)C4CC4)C3)C2=O)c(C)c1 (centres unmarked) [Compound P57]	> 80	mortality at 400 ppm [2, 5]: > 80%
Cc1cc(Br)cc(C)c1C1C(=O)CC(CC2CCOCC2)C1=O (centres unmarked) [Compound T138]	> 80	mortality at 400 ppm [2, 5]: > 80%
Cc1cc(-c2ccc(F)cc2)cc(C)c1C1C(=O)CC(CC2CCOC2)C1=O (centres unmarked) [Compound T158]	> 80	
Cc1cc(C)c(C2C(=O)CC(Cc3ccccc3)(CC3CCOC3)C2=O)c(C)c1 (centres unmarked) [Compound T150]		mortality at 400 ppm [2, 5]: > 80%
CC(=O)N1CCCCC1CC1CC(=O)C(c2c(C)cc(C)cc2C)C1=O (centres unmarked) [Compound T48]	> 80	
CCc1cc(C)cc(C)c1C1C(=O)CC(CCC2CCOCC2)C1=O (centres unmarked) [Compound T58]	> 80	
Cc1cc(C)c(C2=C(OS(=O)(=O)C3CC3)CC(CC3CCOC3)C2=O)c(C)c1 (centres unmarked) [Compound P28]	> 80	
Cc1ccc(C)c(C2C(=O)CC(CC3CCOC3)C2=O)c1 (centres unmarked) [Compound T175]	> 80	
Cc1cc(C)c(C2C(=O)CC(CC3COCCO3)C2=O)c(C)c1 (centres unmarked) [Compound T40]	> 80	
COC(=O)N1CCC(CC2CC(=O)C(c3c(C)cc(C)cc3C)C2=O)CC1 (centres unmarked) [Compound T98]	> 80	mortality at 400 ppm [2]: > 80%

SMILES	mortality at 400 ppm [1, 4] [%]	other results
Cc1cc(C)c(C2C(=O)CC(CCC3CCOCC3)C2=O)c(C)c1 (centres unmarked) [Compound T21]	> 80	
CCc1cc(C)cc(C)c1C1C(=O)CC(CC2CCOCC2)C1=O (centres unmarked) [Compound T50]	> 80	
CCS(=O)(=O)OC1=C(c2c(C)cc(C)cc2C)C(=O)C(CC2CCOC2)C1 (centres unmarked) [Compound P27]		mortality at 400 ppm [3]: > 80%
Cc1cc(-c2ccc(OC(F)(F)F)cc2)cc(C)c1C1C(=O)CC(CC2CCOCC2)C1=O (centres unmarked) [Compound T137]	> 80	
Cc1cc(C)c(C2=C(OC(=O)c3ccco3)CC(CC3CCN(C(=O)c4ccco4)C3)C2=O)c(C)c1 (centres unmarked) [Compound P62]	> 80	
CCCCCCC(=O)OC1=C(c2c(C)cc(C)cc2C)C(=O)C(CC2CCOC2)C1 (centres unmarked) [Compound P16]		mortality at 400 ppm [2, 5]: > 80%
Cc1cc(-c2ccccc2)cc(C)c1C1C(=O)C/C(=C\C2CCOCC2)C1=O (centres unmarked) [Compound T66]	> 80	
CCC(=O)OC1=C(c2c(C)cc(C)cc2C)C(=O)C(CC2CCN(C(=O)CC)CC2)C1 (centres unmarked) [Compound P65]	> 80	
Cc1cc(C)c(C2=C(OC(=O)OCC(C)(C)C)CC(CC3CCOC3)C2=O)c(C)c1 (centres unmarked) [Compound P24]		mortality at 400 ppm [3]: > 80%
Cc1cc(-c2ccccc2F)cc(C)c1C1C(=O)CC(CC2CCOCC2)C1=O (centres unmarked) [Compound T139]	> 80	
CCc1cc(C)cc(C)c1C1C(=O)C/C(=C\C2CCOC2)C1=O (centres unmarked) [Compound T59]		mortality at 400 ppm [2, 5]: > 80%
Cc1cc(C)c(C2C(=O)CC(CC3CCN(C(=O)OC(C)(C)C)CC3)C2=O)c(C)c1 (centres unmarked) [Compound T55]	> 80	
Cc1cc(C)c(C2=C(OC(=O)C3CC3)CC(CC3CCOC3)C2=O)c(C)c1 (centres unmarked) [Compound P14]		mortality at 400 ppm [2, 5]: > 80%
Cc1cc(C2CC2)cc(C)c1C1C(=O)CC(CC2CCOCC2)C1=O (centres unmarked) [Compound T173]	> 80	
Cc1cc(C)c(C2=C(OC(=O)c3c(C)noc3C)CC(CC3CCN(C(=O)c4c(C)noc4C)C3)C2=O)c(C)c1 (centres unmarked) [Compound P63]	> 80	
CCC1CCC(CC2CC(=O)C(c3c(C)cc(C)cc3C)C2=O)O1 (centres unmarked) [Compound T44]	> 80	
CCSC(=O)OC1=C(c2c(C)cc(C)cc2C)C(=O)C(CC2CCOC2)C1 (centres unmarked) [Compound P30]		mortality at 400 ppm [3]: > 80%
Cc1cc(-c2ccc(C(F)(F)F)cc2)cc(C)c1C1C(=O)CC(CC2CCOCC2)C1=O (centres unmarked) [Compound T136]	> 80	
Cc1cc(C)c(C2C(=O)CC(CC3CCN(C(=O)Oc4ccccc4)CC3)C2=O)c(C)c1 (centres unmarked) [Compound T68]		mortality at 400 ppm [2]: > 80%; mortality at 400 ppm [1]: > 80%
Cc1cc(C)c(C2=C(OC(=O)Oc3ccccc3)CC(CC3CCOC3)C2=O)c(C)c1 (centres unmarked) [Compound P26]		mortality at 400 ppm [3]: > 80%
Cc1cc(C)c(C2=C(OC(=O)C3CCCCC3)CC(CC3CCOC3)C2=O)c(C)c1 (centres unmarked) [Compound P15]		mortality at 400 ppm [3]: > 80%
Cc1cc(C)c(C2C(=O)CC(C)(CC3CCOC3)C2=O)c(C)c1 (centres unmarked) [Compound T30]	> 80	
Cc1cc(C)c(C2C(=O)CC(CC3CCN(C(=O)C(C)C)C3)C2=O)c(C)c1 (centres unmarked) [Compound T142]	> 80	

SMILES	mortality at 400 ppm [1, 4] [%]	other results
Cc1cc(Br)cc(C)c1C1C(=O)C/C(=C\C2CCOCC2)C1=O (centres unmarked) [Compound T45]	> 80	mortality at 400 ppm [2, 5]: > 80%
Cc1cc(-c2ccccc2F)cc(C)c1C1C(=O)CC(CC2CCOC2)C1=O (centres unmarked) [Compound T140]	> 80	
Cc1cc(C)c(C2C(=O)CC(CC3CCN(C(=O)C(F)(F)C(F)F)C3)C2=O)c(C)c1 (centres unmarked) [Compound T131]	> 80	
CON1CCC(CC2CC(OC(=O)C(C)(C)C)=C(c3c(C)cc(C)cc3C)C2=O)CC1 (centres unmarked) [Compound P51]	> 80	
Cc1cc(C)c(C2=C(OC(=O)C(C)C)CC(CC3CCN(C(=O)C(C)C)C3)C2=O)c(C)c1 (centres unmarked) [Compound P58]	> 80	
Cc1cc(C)c(C2C(=O)C/C(=C\C3CCN(C(=O)c4ccccc4)C3)C2=O)c(C)c1 (centres unmarked) [Compound T34]	> 80	
Cc1cc(C)c(C2C(=O)CC(CC3CCN(C(=O)C(F)(F)C(F)F)CC3)C2=O)c(C)c1 (centres unmarked) [Compound T161]	> 80	
Cc1cc(C)c(C2C(=O)CC(CC3CCN(S(=O)(=O)C(F)(F)F)CC3)C2=O)c(C)c1 (centres unmarked) [Compound T112]	> 80	
Cc1cc(C)c(C2C(=O)CC(C(O)C3CCSCC3)C2=O)c(C)c1 (centres unmarked) [Compound T6]	> 80	
Cc1cc(C)c(C2=C(OC(=O)C(C)(C)C)CC(CC3CCN(C(=O)C(C)(C)C)C3)C2=O)c(C)c1 (centres unmarked) [Compound P59]	> 80	
Cc1cc(C)c(C2=C(OC(=O)C(C)(C)C)CC(CC3COCCO3)C2=O)c(C)c1 (centres unmarked) [Compound P49]	> 80	
Cc1cc(F)cc(C)c1C1C(=O)CC(CC2CCOCC2)C1=O (centres unmarked) [Compound T170]	> 80	
Cc1cc(Br)cc(C)c1C1=C(OC(=O)C(C)(C)C)CC(CC2CCOCC2)C1=O (centres unmarked) [Compound P66]		mortality at 400 ppm [2, 5]: > 80%
Cc1cc(-c2ccc(Cl)cc2F)cc(C)c1C1C(=O)C/C(=C\C2CCOCC2)C1=O (centres unmarked) [Compound T132]	> 80	mortality at 400 ppm [2, 5]: > 80%
Cc1cc(C)c(C2C(=O)C(C)C(CC3CCOC3)C2=O)c(C)c1 (centres unmarked) [Compound T29]		mortality at 400 ppm [2, 5]: > 80%
Cc1cc(C)c(C2C(=O)CC(CC3CCN(c4ccc(Cl)cc4)CC3)C2=O)c(C)c1 (centres unmarked) [Compound T60]	> 80	
Cc1cc(C)c(C2C(=O)CC(CC3CCN(C(=O)C(F)(F)F)CC3)C2=O)c(C)c1 (centres unmarked) [Compound T163]	> 80	
Cc1cc(C)c(C2C(=O)C/C(=C\C3CCOC(C)(C)C3)C2=O)c(C)c1 (centres unmarked) [Compound T37]	> 80	mortality at 400 ppm [2, 5]: > 80%
Cc1cc(-c2ccc(Cl)cc2F)cc(C)c1C1C(=O)C/C(=C\C2CCOC2)C1=O (centres unmarked) [Compound T135]	> 80	
Cc1cc(-c2ccccc2)cc(C)c1C1C(=O)CC(CC2CCOCC2)C1=O (centres unmarked) [Compound T67]	> 80	
Cc1ccc(C)c(C2C(=O)CC(CC3CCOCC3)C2=O)c1 (centres unmarked) [Compound T164]	> 80	
Cc1cc(C)c(C2C(=O)CC(CC3CCN(C(=O)c4ccccc4C)CC3)C2=O)c(C)c1 (centres unmarked) [Compound T72]	> 80	
